# Read-outs that look alike come from different tables or passages of the source.
# Key:
# [1] = Drug distribution in porcine ocular tissues ex vivo, comparison across tissues; format: in vitro ADME; details: for time to reach equilibrium in tissue: porcine tissues ex vivo, Figure 1
# From the text: Cornea. […] Bulbar conjunctiva.
# [2] = cited from earlier work
# [3] = de-epithelized vs intact cornea; ref [29],[46]; cited from earlier work
# [4] = for ratio of signal against twice the signal of propranolol, Epithelium 10 min / ratio of signal against twice the signal of propranolol, Epithelium 60 min: rabbit corneal epithelium; for ratio of signal against twice the signal of propranolol, Epithelium 10 min / ratio of signal against twice the signal of propranolol, Stroma 10 min: 10 min after eye drop; for ratio of signal against twice the signal of propranolol, Epithelium 10 min / ratio of signal against twice the signal of propranolol, Epithelium 60 min / ratio of signal against twice the signal of propranolol, Stroma 10 min / ratio of signal against twice the signal of propranolol, Stroma 60 min: MALDI-IMS; for ratio of signal against twice the signal of propranolol, Epithelium 60 min / ratio of signal against twice the signal of propranolol, Stroma 60 min: 60 min after eye drop; for ratio of signal against twice the signal of propranolol, Stroma 10 min / ratio of signal against twice the signal of propranolol, Stroma 60 min: rabbit corneal stroma
# Procedure: Three months old female New Zealand White rabbits, 2.5–2.8 kg (Envigo Laboratories, Blackthron, Bicester, UK), were used in the study to determine the distribution of drugs in the cornea. […] The rabbits were sacrificed by injecting a lethal dose (2 mL/kg) of pentobarbital (Mebunat vet 60 mg/mL; Orion Pharma, Finland) into the marginal ear vein at 10, 20, and 60 min post-dosing. The eyes were removed and snap-frozen with liquid nitrogen in plastic tubes and stored at −80 °C until sample preparation and analysis with MALDI-IMS.
# The frozen eyes were mounted onto a chuck using an optimal cutting temperature compound (Sakura Finetek, Torrance, CA, USA). The samples were sectioned to 20 μm or 35 μm thickness at −20 °C on a Leica CM Cryostat (S3050, Leica Microsystems GmbH, Wetzlar, Germany) and collected on a cryo-film (3C16UF, SECTION-LAB Co. Ltd., Yokohama, Japan) by a modified Kawamoto method. The film was subsequently mounted onto a microscope glass slide using a double-sided copper tape, and the sample slides were dried in a lyophilization chamber. The slides were washed twice with 50 mM ammonium formate for 10 s and dried in a vacuum desiccator. The sample slides contained sections from three eyes from the eye drop experiment and three blanks. The matrix α-cyano-4hydroxycinnamic acid (CHCA) (7 mg/mL in 50% acetonitrile containing 1% trifluoro acetic acid) (Sigma-Aldrich, St. Louis, MO, USA) was added via spray deposition using 10 passes, flow rate of 100 μL/min, temperature of 77 °C, track spacing of 2.5 mm, and velocity of 1300 mm/min (TM-Sprayer, HTX Technologies, Chapel Hill, NC, USA).
# Fourier transform-ion cyclotron resonance (FT-ICR) MALDI-IMS was performed using a Bruker 7T SolariX XR mass spectrometer (Bruker Daltonics, Bremen, Germany) at 50 μm spatial resolution for the corneal area and 150 μm spatial resolution for the rest of the eye. […] MALDI images of each signal were plotted with a 5 mDa mass window using flexImaging^TM software (v4.1, Bruker Daltonics, Bremen, Germany) with datasets normalized by the RMS method and pixel interpolation.
# The data for calculation was obtained by taking six crosscuts through the cornea; no normalization was used.
# [5] = ex vivo, 180 min epithelial side exposure, donor 2 ng/µL
# in vitro = details: pig, pH 7.4
# [6] = ex vivo, 180 min epithelial side exposure, donor 2 ng/µL; remark: listed apart in the source
# [7] = ex vivo, 180 min epithelial side exposure, donor 2 ng/µL; remark: listed apart in the source
# [8] = design: method as in PMID 3246568; details: inferior drug insert application, rabbit; ref [56]; cited from earlier work
# [9] = n-octanol/buffer solution distribution coefficient at pH 7.4, ref [10],[44]
compound,measurement,setting,value
CC(C)NCC(O)COc1ccc(CC(N)=O)cc1 (stereo not drawn) [Atenolol],"difference in concentration between corneal epithelium, corneal stroma and conjunctiva",[1]; ex vivo,two-fold
same,time to reach equilibrium in tissue,[1],≈ 30 min
CC(C)NCC(O)COc1ccc(CCOCC2CC2)cc1 (stereo not drawn) [Betaxolol],time to reach equilibrium in tissue,[1],≈ 60 min
same,Log D7.4,[2]; as listed in Table S2,0.43
same,Log D7.4,[2]; [9],0.43
same,change of permeability in de-epithelized corneas,[3],only modest or no changes
COCCc1ccc(OCC(O)CNC(C)C)cc1 (stereo not drawn) [Metoprolol],Log D7.4,[2]; as listed in Table S2,−0.5
CC(C)(C)NCC(O)COc1cccc2c1CC(O)C(O)C2 (stereo not drawn) [Nadolol],time to reach equilibrium in tissue,[1],≈ 30 min
same,Log D7.4,[2]; [9],−1.54
CC(C)NCC(O)COc1cccc2[nH]ccc12 (stereo not drawn) [Pindolol],"ratio of signal against twice the signal of propranolol, Epithelium 10 min",[4],0.21 ± 0.01
same,"ratio of signal against twice the signal of propranolol, Epithelium 60 min",[4],0.356± 0.08
same,"ratio of signal against twice the signal of propranolol, Stroma 10 min",[4],0.57 ± 0.00
same,"ratio of signal against twice the signal of propranolol, Stroma 60 min",[4],0.83 ± 0.13
same,Log D7.4,[2]; as listed in Table S2,0.06
same,Log D7.4,[2]; [9],−0.5
CC(C)NCC(O)COc1cccc2ccccc12 (stereo not drawn) [Propranolol],MALDI-IMS signal intensity in corneal tissues and aqueous humor,"[4]; rabbit, in vivo",highest intensity
same,time to reach equilibrium in tissue,[1],≈ 60 min
same,concentration in corneal epithelium,[5],9.46 ng/mg tissue
same,"Kp at 3 h, 2 µg/mL",in vitro,4.7
same,change of permeability in de-epithelized corneas,[3],only modest or no changes
same,concentration in corneal stroma,[6],0.83 ng/mg
same,concentration in conjunctiva,[7],1.24 ng/mg
CC(C)(C)NC[C@H](O)COc1nsnc1N1CCOCC1 [Timolol],"ratio of signal against twice the signal of propranolol, Epithelium 10 min",[4],0.19 ± 0.02
same,"ratio of signal against twice the signal of propranolol, Epithelium 60 min",[4],0.25 ± 0.08
same,"ratio of signal against twice the signal of propranolol, Stroma 10 min",[4],0.36 ± 0.01
same,"ratio of signal against twice the signal of propranolol, Stroma 60 min",[4],0.45 ± 0.17
same,MALDI-IMS signal in corneal tissues and aqueous humor,"[4]; rabbit, in vivo",below the limit of detection in many pixels
same,time to reach equilibrium in tissue,[1],≈ 30 min
same,Log D7.4,[2]; [9],−1.43
same,timolol levels in the inferior relative to the superior cornea,[8],4–6 fold

# From publication PMC8147976, “Partitioning and Spatial Distribution of Drugs in Ocular Surface Tissues” (Pharmaceutics, 2021)
